According to patent US9855230B2 (ViiV Healthcare UK (No. 5) Limited, priority 2014, dated 2018):
Where a name gives a salt, the structure may show the parent alone. Read-outs that look alike come from different tables or passages of the source.

Tests used:
[1] = Compound cytotoxicity (CC50), XTT-based colorimetric assay; type: cell-based; details: human; uninfected MT2 cells, day 4, XTT assay
Method: Compound cytotoxicity and the corresponding CC50 values were determined using the same protocol as described in the antiviral assay except that uninfected cells were used. Cytotoxicity was assessed on day 4 in uninfected MT2 cells by using a XTT (2,3-bis[2-Methoxy-4-nitro-5-sulfophenyl]-2H-tetrazolium-5-carboxyanilide inner salt)-based colorimetric assay (Sigma-Aldrich, St Louis, Mo.).

[2] = test system: recombinant NL4-3 virus (nef section replaced with Renilla luciferase gene) in MT-2 cells; assay: whole plant or invertebrate; type: cell-based, HIV
Text: A recombinant NL4-3 proviral clone, in which a section of the nef gene was replaced with the Renilla luciferase gene, was used to make the reference virus used in these studies.
Supernatent was harvested after 2-3 days and the amount of virus present was titered in MT-2 cells using luciferase enzyme activity as a marker by measuring luciferase enzyme activity. Luciferase was quantitated using the EnduRen Live Cell Substrate from Promega (Madison, Wis.). Antiviral activities of compounds toward the recombinant virus were quantified by measuring luciferase activity in MT-2 cells infected for 4-5 days with the recombinant virus in the presence of serial dilutions of the compound.

[3] = NL43, luciferase activity in MT-2 cells infected 4-5 days with recombinant NL4-3 virus, read-out: Activity
[4] = NL43, luciferase activity in MT-2 cells infected 4-5 days with recombinant NL4-3 virus, read-out: EC50

SMILES	CC50 at 4 day [1] [nM]	EC50 [2, 3] [nM]	EC50 [2, 4] [nM]	EC50 ([2]; NL43) [nM]	EC50 ([2]; NL43, read-out: Activity) [nM]
Cc1ccccc1S(=O)(=O)NC(=O)N[C@@H](Cc1ccccc1)c1nccn1-c1ccc2sccc2c1 [Example 74, (S)-N-((1-(1-(benzo[b]thiophen-5-yl)-1H-imidazol-2-yl)-2-phenylethyl)carbamoyl)-2-methylbenzenesulfonamide]	39000	< 100	–	–	–
COC(=O)Nc1ccc(-n2ccnc2[C@H](Cc2ccccc2)NC(=O)NS(=O)(=O)C(C)C)cc1 [Example 52, (S)-methyl (4-(2-(1-(3-(isopropylsulfonyl)ureido)-2-phenylethyl)-1H-imidazol-1-yl)phenyl)carbamate]	> 100000	100 to 1000	–	–	–
COc1ccc(-n2ccnc2[C@H](Cc2ccccc2)NC(=O)NS(=O)(=O)c2ccccc2C)c(C)c1 [Example 8, (S)-N-((1-(1-(4-methoxy-2-methylphenyl)-1H-imidazol-2-yl)-2-phenylethyl)carbamoyl)-2-methylbenzenesulfonamide]	> 100000	100 to 1000	–	–	–
Cc1ccccc1S(=O)(=O)NC(=O)N[C@@H](Cc1ccccc1)c1nccn1-c1ccc2c(c1)OCCO2 [Example 22]	> 100000	100 to 1000	–	–	–
Cc1ccccc1S(=O)(=O)NC(=O)N[C@@H](Cc1ccccc1)c1nccn1-c1ccc2occc2c1 [Example 77, (S)-N-((1-(1-(benzofuran-5-yl)-1H-imidazol-2-yl)-2-phenylethyl)carbamoyl)-2-methylbenzenesulfonamide]	> 100000	< 100	–	–	–
COC(=O)Nc1ccc(-n2ccnc2[C@H](Cc2ccccc2)NC(=O)NS(=O)(=O)Cc2ccccc2)cc1 [Example 47, (S)-methyl (4-(2-(1-(3-(benzylsulfonyl)ureido)-2-phenylethyl)-1H-imidazol-1-yl)phenyl)carbamate]	> 33000	100 to 1000	–	–	–
COc1ccc(-c2ccc(-n3ccnc3[C@H](Cc3ccccc3)NC(=O)NS(=O)(=O)c3ccccc3C)cc2)cn1 [Example 63, (S)-N-((1-(1-(4-(6-methoxypyridin-3-yl)phenyl)-1H-imidazol-2-yl)-2-phenylethyl)carbamoyl)-2-methylbenzenesulfonamide]	> 100000	100 to 1000	100	–	–
Cc1ccccc1S(=O)(=O)NC(=O)N[C@H](Cc1cc(F)cc(F)c1)c1ncccc1Br [Example 107, (R)-N-((1-(3-bromopyridin-2-yl)-2-(3,5-difluorophenyl)ethyl)carbamoyl)-2-methylbenzenesulfonamide, TFA]	> 33000	> 1000	–	–	–
Cc1ccccc1-n1ccnc1[C@H](Cc1ccccc1)NC(=O)NS(=O)(=O)c1ccccc1C [Example 28, (S)-2-methyl-N-((2-phenyl-1-(1-(o-tolyl)-1H-imidazol-2-yl)ethyl)carbamoyl)benzenesulfonamide]	> 100000	> 1000	–	–	–
Cc1ccc(-n2ccnc2[C@H](Cc2ccccc2)NC(=O)NS(=O)(=O)c2ccccc2C)cc1Cl [Example 32, (S)-N-((1-(1-(3-chloro-4-methylphenyl)-1H-imidazol-2-yl)-2-phenylethyl)carbamoyl)-2-methylbenzenesulfonamide]	> 100000	< 100	–	–	–
Cc1ccccc1S(=O)(=O)NC(=O)N[C@@H](Cc1cc(F)cc(F)c1)c1ncccc1-c1cccc(CO)c1 [Example 121, (S)-N-((2-(3,5-difluorophenyl)-1-(3-(3-(hydroxymethyl)phenyl)pyridin-2-yl)ethyl)carbamoyl)-2-methylbenzenesulfonamide, TFA]	> 100000	100 to 1000	–	–	–
COC(=O)Nc1ccc(-n2ccnc2[C@H](Cc2ccccc2)NC(=O)NS(=O)(=O)Cc2cccc(Cl)c2)cc1 [Example 48, (S)-methyl (4-(2-(1-(3-((3-chlorobenzyl)sulfonyl)ureido)-2-phenylethyl)-1H-imidazol-1-yl)phenyl)carbamate]	> 100000	< 100	70	–	–
COc1cccc(-n2ccnc2[C@H](Cc2ccccc2)NC(=O)NS(=O)(=O)c2ccccc2C)c1 [Example 9, (S)-N-((1-(1-(3-methoxyphenyl)-1H-imidazol-2-yl)-2-phenylethyl)carbamoyl)-2-methylbenzenesulfonamide]	> 100000	< 100	50	–	–
COC(=O)Nc1ccc(-n2ccnc2[C@H](Cc2ccccc2)NC(=O)NS(=O)(=O)c2ccccc2)cc1 [Example 37, (S)-methyl (4-(2-(2-phenyl-1-(3-(phenylsulfonyl)ureido)ethyl)-1H-imidazol-1-yl)phenyl)carbamate]	> 33000	100 to 1000	–	–	–
COC(=O)Nc1ccc(-c2cccnc2[C@@H](Cc2ccccc2)NC(=O)NS(=O)(=O)c2ccccc2Cl)cc1 [Example 111, (R)-methyl (4-(2-(1-(3-((2-chlorophenyl)sulfonyl)ureido)-2-phenylethyl)pyridin-3-yl)phenyl)carbamate, TFA]	82000	> 1000	30400	–	–
Cc1ccccc1S(=O)(=O)NC(=O)N[C@@H](Cc1cc(F)cc(F)c1)c1ncccc1-c1ccc(F)c2ccccc12 [Example 132, (S)-N-((2-(3,5-difluorophenyl)-1-(3-(4-fluoronaphthalen-1-yl)pyridin-2-yl)ethyl)carbamoyl)-2-methylbenzenesulfonamide, TFA]	73000	> 1000	4810	–	–
Cc1ccccc1S(=O)(=O)NC(=O)N[C@@H](Cc1cc(F)cc(F)c1)c1ncccc1-c1ccc(-c2cccs2)cc1 [Example 125, (S)-N-((2-(3,5-difluorophenyl)-1-(3-(4-(thiophen-2-yl)phenyl)pyridin-2-yl)ethyl)carbamoyl)-2-methylbenzenesulfonamide, TFA]	38000	> 1000	–	–	–
O=C(N[C@H](Cc1cc(F)cc(F)c1)c1ncccc1-c1ccc2ccncc2c1)NS(=O)(=O)c1ccccc1Cl [Example 99, (R)-2-chloro-N-((2-(3,5-difluorophenyl)-1-(3-(isoquinolin-7-yl)pyridin-2-yl)ethyl)carbamoyl)benzenesulfonamide, 2 TFA]	> 33000	–	–	1060	> 1000
COC(=O)Nc1ccc(-n2ccnc2[C@H](Cc2ccccc2)NC(=O)NS(=O)(=O)c2ccccc2OC(F)(F)F)cc1 [Example 45, (S)-methyl (4-(2-(2-phenyl-1-(3-((2-(trifluoromethoxy)phenyl)sulfonyl)ureido)ethyl)-1H-imidazol-1-yl)phenyl)carbamate]	> 100000	< 100	60	–	–
COc1ccc(-n2ccnc2[C@H](Cc2ccccc2)NC(=O)NS(=O)(=O)c2ccccc2C)cc1 [Example 1, (S)-N-((1-(1-(4-methoxyphenyl)-1H-imidazol-2-yl)-2-phenylethyl)carbamoyl)-2-methylbenzene-sulfonamide]	> 100000	< 100	–	–	–
Cc1ccccc1S(=O)(=O)NC(=O)N[C@@H](Cc1ccccc1)c1nccn1-c1ccc(OC(C)C)cc1 [Example 21, (S)-N-((1-(1-(4-isopropoxyphenyl)-1H-imidazol-2-yl)-2-phenylethyl)carbamoyl)-2-methylbenzenesulfonamide]	> 100000	< 100	50	–	–
